{
  "source": "patent US20080268488A1",
  "about": "“Screening Method for Dnak Inhibitors” (priority 2005, published 2008)",
  "origin": "cited, not measured here",
  "conditions": "aminopeptidase and carboxypeptidase cleavage products observed",
  "note": "No end group written: not given here.",
  "data": [
    {"sequence": "VDKGSYLPRPTPPRPIYNRN [pyrrhocoricin]", "values": [
      {"measurement": "susceptibility to proteolytic degradation in the presence of mammalian serum", "result": "highly susceptible to proteolytic degradation"}
    ]},
    {"sequence": "GKPRPYSPRPTSHPRPIRV [drosocin, Gly-Lys-Pro-Arg-Pro-Tyr-Ser-Pro-Arg-Pro-Thr-Ser-His-Pro-Arg-Pro-Ile-Arg-Val]", "values": [
      {"measurement": "susceptibility to proteolytic degradation in the presence of mammalian serum", "result": "highly susceptible to proteolytic degradation"}
    ]}
  ]
}
